Laboratory results reported in the NIST ThermoML archive (doi:10.1016/j.jct.2012.03.034).
± gives the expanded uncertainty stated by the source.

Assay: xn = mol fraction of the nth substance listed
Conditions: 101 kPa, Liquid; for speed of sound: Linear variable-path acoustic interferometer; for mass density: Vibrating tube method; for viscosity: dual vibrating plate viscometer, AandD Co. Ltd Model SV-10

CC(=O)O.CCN(CC)CC [triethylammonium acetate] + CN1CCCC1=O
speed of sound (308.15 K, x1 = 0.0138): 1530 ± 2 m/s
speed of sound (308.15 K, x1 = 0.0302): 1533 ± 2 m/s
speed of sound (308.15 K, x1 = 0.0813): 1536 ± 2 m/s
speed of sound (308.15 K, x1 = 0.117): 1539 ± 2 m/s
speed of sound (308.15 K, x1 = 0.1733): 1544 ± 2 m/s
speed of sound (308.15 K, x1 = 0.2751): 1553 ± 2 m/s
speed of sound (308.15 K, x1 = 0.3189): 1559 ± 2 m/s
speed of sound (308.15 K, x1 = 0.3865): 1572 ± 2 m/s
speed of sound (308.15 K, x1 = 0.5133): 1593 ± 2 m/s
speed of sound (308.15 K, x1 = 0.6561): 1632 ± 2 m/s
speed of sound (308.15 K, x1 = 0.8181): 1698 ± 2 m/s
speed of sound (308.15 K, x1 = 0.926): 1753 ± 2 m/s
speed of sound (308.15 K, x1 = 0.9642): 1776 ± 2 m/s
speed of sound (308.15 K, x1 = 1): 1798 ± 2 m/s
mass density (308.15 K, x1 = 0.0138): 1020.18 ± 0.31 kg/m3
mass density (308.15 K, x1 = 0.0302): 1020.47 ± 0.3 kg/m3
mass density (308.15 K, x1 = 0.0813): 1020.35 ± 0.3 kg/m3
mass density (308.15 K, x1 = 0.117): 1019.88 ± 0.3 kg/m3
mass density (308.15 K, x1 = 0.1733): 1018.8 ± 0.3 kg/m3
mass density (308.15 K, x1 = 0.2751): 1015.91 ± 0.3 kg/m3
mass density (308.15 K, x1 = 0.3189): 1014.49 ± 0.3 kg/m3
mass density (308.15 K, x1 = 0.3865): 1011.99 ± 0.3 kg/m3
mass density (308.15 K, x1 = 0.5133): 1007.46 ± 0.3 kg/m3
mass density (308.15 K, x1 = 0.6561): 1003.25 ± 0.29 kg/m3
mass density (308.15 K, x1 = 0.8181): 1000.89 ± 0.29 kg/m3
mass density (308.15 K, x1 = 0.926): 1001.01 ± 0.29 kg/m3
mass density (308.15 K, x1 = 0.9642): 1001.75 ± 0.29 kg/m3
mass density (308.15 K, x1 = 1): 1002.61 ± 0.29 kg/m3
viscosity (308.15 K, x1 = 0.0138): 1.5 ± 0.03 mPa·s
viscosity (308.15 K, x1 = 0.0302): 1.81 ± 0.04 mPa·s
viscosity (308.15 K, x1 = 0.0813): 2.61 ± 0.06 mPa·s
viscosity (308.15 K, x1 = 0.117): 3.03 ± 0.06 mPa·s
viscosity (308.15 K, x1 = 0.1733): 3.36 ± 0.07 mPa·s
viscosity (308.15 K, x1 = 0.2751): 3.28 ± 0.07 mPa·s
viscosity (308.15 K, x1 = 0.3189): 3.14 ± 0.07 mPa·s
viscosity (308.15 K, x1 = 0.3865): 2.59 ± 0.05 mPa·s
viscosity (308.15 K, x1 = 0.5133): 2.51 ± 0.05 mPa·s
viscosity (308.15 K, x1 = 0.6561): 3.1 ± 0.07 mPa·s
viscosity (308.15 K, x1 = 0.8181): 7.76 ± 0.16 mPa·s
viscosity (308.15 K, x1 = 0.926): 13.1 ± 0.27 mPa·s
viscosity (308.15 K, x1 = 0.9642): 14.98 ± 0.31 mPa·s
viscosity (308.15 K, x1 = 1): 16.13 ± 0.33 mPa·s
speed of sound (313.15 K, x1 = 0.0138): 1525 ± 2 m/s
speed of sound (313.15 K, x1 = 0.0302): 1527 ± 2 m/s
speed of sound (313.15 K, x1 = 0.0813): 1529 ± 2 m/s
speed of sound (313.15 K, x1 = 0.117): 1530 ± 2 m/s
speed of sound (313.15 K, x1 = 0.1733): 1535 ± 2 m/s
speed of sound (313.15 K, x1 = 0.2751): 1543 ± 2 m/s
speed of sound (313.15 K, x1 = 0.3189): 1548 ± 2 m/s
speed of sound (313.15 K, x1 = 0.3865): 1561 ± 2 m/s
speed of sound (313.15 K, x1 = 0.5133): 1582 ± 2 m/s
speed of sound (313.15 K, x1 = 0.6561): 1616 ± 2 m/s
speed of sound (313.15 K, x1 = 0.8181): 1669 ± 2 m/s
speed of sound (313.15 K, x1 = 0.926): 1716 ± 2 m/s
speed of sound (313.15 K, x1 = 0.9642): 1735 ± 2 m/s
speed of sound (313.15 K, x1 = 1): 1752 ± 2 m/s
mass density (313.15 K, x1 = 0.0138): 1015.8 ± 0.31 kg/m3
mass density (313.15 K, x1 = 0.0302): 1016.2 ± 0.3 kg/m3
mass density (313.15 K, x1 = 0.0813): 1016.66 ± 0.3 kg/m3
mass density (313.15 K, x1 = 0.117): 1016.4 ± 0.3 kg/m3
mass density (313.15 K, x1 = 0.1733): 1015.69 ± 0.3 kg/m3
mass density (313.15 K, x1 = 0.2751): 1013.39 ± 0.3 kg/m3
mass density (313.15 K, x1 = 0.3189): 1012.13 ± 0.3 kg/m3
mass density (313.15 K, x1 = 0.3865): 1010.15 ± 0.3 kg/m3
mass density (313.15 K, x1 = 0.5133): 1006.1 ± 0.29 kg/m3
mass density (313.15 K, x1 = 0.6561): 1002.5 ± 0.29 kg/m3
mass density (313.15 K, x1 = 0.8181): 1000.41 ± 0.29 kg/m3
mass density (313.15 K, x1 = 0.926): 1000.32 ± 0.29 kg/m3
mass density (313.15 K, x1 = 0.9642): 1000.61 ± 0.29 kg/m3
mass density (313.15 K, x1 = 1): 1000.97 ± 0.29 kg/m3
viscosity (313.15 K, x1 = 0.0138): 1.47 ± 0.03 mPa·s
viscosity (313.15 K, x1 = 0.0302): 1.72 ± 0.04 mPa·s
viscosity (313.15 K, x1 = 0.0813): 2.3 ± 0.05 mPa·s
viscosity (313.15 K, x1 = 0.117): 2.78 ± 0.06 mPa·s
viscosity (313.15 K, x1 = 0.1733): 3.04 ± 0.06 mPa·s
viscosity (313.15 K, x1 = 0.2751): 2.98 ± 0.06 mPa·s
viscosity (313.15 K, x1 = 0.3189): 2.83 ± 0.06 mPa·s
viscosity (313.15 K, x1 = 0.3865): 2.38 ± 0.05 mPa·s
viscosity (313.15 K, x1 = 0.5133): 2.34 ± 0.05 mPa·s
viscosity (313.15 K, x1 = 0.6561): 3.01 ± 0.06 mPa·s
viscosity (313.15 K, x1 = 0.8181): 7.08 ± 0.15 mPa·s
viscosity (313.15 K, x1 = 0.926): 11.65 ± 0.24 mPa·s
viscosity (313.15 K, x1 = 0.9642): 13.39 ± 0.28 mPa·s
viscosity (313.15 K, x1 = 1): 14.81 ± 0.31 mPa·s
